{
  "source": "patent US20060025458A1",
  "about": "“Alkylammonium compounds as antifungal and antitrypanosomal agents” (University of Connecticut, priority 2004, published 2006)",
  "key": {"[1]": {"target": "T1, recombinant PtdSer decarboxylase PfPsd1 (Plasmodium falciparum, UniProt Q9GPP8)", "T1 construct": "made in house", "T1 sequence (Q9GPP8 1-362)": "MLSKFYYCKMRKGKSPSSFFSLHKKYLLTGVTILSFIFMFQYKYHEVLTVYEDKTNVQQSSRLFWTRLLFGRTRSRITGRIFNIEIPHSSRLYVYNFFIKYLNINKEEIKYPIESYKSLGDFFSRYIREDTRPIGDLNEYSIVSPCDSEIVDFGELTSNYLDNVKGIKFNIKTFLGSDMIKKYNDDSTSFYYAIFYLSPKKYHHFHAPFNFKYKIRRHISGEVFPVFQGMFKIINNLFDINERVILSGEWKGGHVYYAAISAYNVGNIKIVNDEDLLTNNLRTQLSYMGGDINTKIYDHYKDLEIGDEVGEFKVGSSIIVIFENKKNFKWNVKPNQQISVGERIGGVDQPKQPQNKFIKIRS", "assay": "PtdSer decarboxylase assay with recombinant enzyme", "assay_type": "biochemical", "details": "increasing concentrations of G25", "method": "FIG. 11A. Effect of G25 on the activity of purified recombinant PfPsd1 enzyme. PfPsd1 activity was determined as described in Materials and Methods by measuring the amount of [^14C]-PtdEtn formed from PtdSer. TLC analysis of PfPsd1-mediated conversion of PtdSer into PtdEtn in the absence and presence of increasing concentrations of G25 was performed.\nFIG. 11B. Values are means±standard deviation of triplicate determination of two independent experiments.\nRecombinant P. falciparum PtdSer decarboxylase was purified as described by Baunaure and colleagues (Baunaure, et al., 2004) The assay mixture (0.3 ml) contained 0.1 M potassium phosphate buffer (pH 6.8), 0.06% Triton X-100 (w/v), 200 μM L-[dipalmitoyl]phosphatidyl[3-^14C]-serine (1.35 mCi/mmol; Amersham), and the enzyme fraction containing recombinant protein of P. falciparum (240 μg). After incubation at 37° C. for 1 hour, the reaction was terminated by the addition of 400 μl chloroform. Chloroform-soluble materials were extracted, dried, and then dissolved in chloroform/methanol (9:1, v/v). Phospholipids were separated by Thin Layer Chromatography as described above. The radioactive phospholipids were localized and identified using appropriate standards, and radioactivity was quantified using the phosphoimager analyzer (Molecular Dynamics).\nG25 inhibits the activity of recombinant P. falciparum PtdSer decarboxylase. […]"}, "[2]": {"tested_on": "P. falciparum-infected erythrocytes", "details": "after 3 h incubation; cited from earlier work"}},
  "data": [
    {"smiles": "C[N+]1(CCCCCCCCCCCCCCCC[N+]2(C)CCCC2)CCCC1.[Br-].[Br-]", "note": "[G25, 1,16-hexadecamethylenebis[N-methylpyrrolidinium]dibromide]", "values": [
      {"measurement": "activity of recombinant PfPsd1", "setting": "[1]", "value": "steady decrease in the activity"},
      {"measurement": "cellular accumulation ratio (CAR)", "setting": "[2]", "value": "~300"}
    ]}
  ]
}
